Ends that are not written are not given here.
How the values were obtained:
Test in all cases: microbe, parasite or virus in culture
Assay type in all cases: cell-based
[1] = tested on: Klebsiella pneumoniae (ATCC 10031); conditions: ATCC 10031
Protocol: (§1) Minimum inhibition concentrations (MICs) were determined against Escherichia coli (ATCC 25922), Staphylococcus aureus (ATCC 25923), Klebsiella pneumoniae (ATCC 10031) and Pseudomonas aeruginosa (ATCC 27853). Also clinical strains of E. coli, K. pneumoniae, E. cloacae, P. aeruginosa, Serratia marcescens, Proteus mirabilis, S. pneumoniae, Acinetobacter baumannii, A. johnsonii and S. aureus were used for MICs assays. Additionally, clinical strains of yeast including Candida albicans, C. glabrata, C. parapsilosis and C. quillermondiae were used. The susceptibility of these microorganisms to Chain peptides were determined using micro broth dilution assay. Colonies of the respective microorganism from Muller Hinton (MH) agar plates incubated overnight were suspended in MH broth media and final concentration of microorganism was adjusted to 5.0×10^5 cfu/ml. An aliquot of 10 μl of each Chain peptide, or gentamicin, tetracycline as reference antibiotics were added in differing concentrations along with 90 μl of bacterial suspension to 96 well polypropylene plates and incubated at 37° C. for 20 to 24 hours. Concentrations of Chain peptides and reference antibiotics ranged from 0.125 to 128 μg/ml and the MICs were recorded as the lowest concentration with no visual growth of bacteria. Similarly, antifungal MICs were tested in Potato dextrose broth.

[2] = tested on: Pseudomonas aeruginosa (ATCC 27853); conditions: ATCC 27853
Protocol: as §1

[3] = tested on: Staphylococcus aureus (ATCC 25923); conditions: ATCC 25923
Protocol: as §1

[4] = tested on: Escherichia coli (ATCC 25922); conditions: ATCC 25922
Protocol: as §1

Sequence	Minimum inhibitory concentration, Klebsiella pneumoniae (ATCC 10031) [1] [µg/mL]	Minimum inhibitory concentration, Pseudomonas aeruginosa (ATCC 27853) [2] [µg/mL]	Minimum inhibitory concentration, Staphylococcus aureus (ATCC 25923) [3] [µg/mL]	Minimum inhibitory concentration, Escherichia coli (ATCC 25922) [4] [µg/mL]
DCWSAMIRLHAKYNQV [Chain100]	>128	>128	>128	>128
KLKKFKLFKKR [Chain312]	>128	>128	>128	>128
WRIVQWRKLKR [Chain210]	>128	>128	>128	>128
KRIVRWRTRKR [Chain205]	>128	>128	>128	64
WIRLHWKRLRK [Chain106]	>128	64	>128	>128
WRKWFWLFKKR [Chain309]	64	8	32	32
KIRLHRKRLRK [Chain101]	>128	>128	>128	>128
WWRLHAKKKLW [Chain107]	>128	>128	>128	64
IWKRFRLFKKW [Chain304]	64	8	32	16
WRILRWRKLKR [Chain208]	>128	32	>128	32
KKRLHRKRLRK [Chain102]	>128	>128	>128	>128
KRIVRWRKLKRK [Chain207]	>128	>128	>128	>128

— patent publication US10457709B2, “Antimicrobial peptides, their variants and uses” (priority 2015, dated 2019)
